Measurements as given in US20100056519A1, “COMPOSITION AND METHOD FOR REDUCING PLATELET ACTIVATION AND FOR THE TREATMENT OF THROMBOTIC EVENTS” (priority 2008, published 2010).

How the values were obtained:
Assay type in all cases: cell-based, human
GPIb (CD42b) = assay: Unstimulated whole blood flow cytometry, GPIb; settings: for GPIb (CD42b), Mean Fluorescence Intensity: unstimulated, Mean ± SD
Experimental: (§1) The methodology employed was conventional aggregation induced by 5 μM ADP, 1 μg/ml collagen, 10 μM TRAP, whole blood aggregation with 1 μg/ml collagen, Ultegra, and PFA-100 Analyzers, expression of 14 intact, and TRAP-stimulated major receptors by whole blood flow cytometry were utilized to assess platelet activity after preincubation with escalating concentrations of E5555 (20 ng/ml, 50 ng/ml, and 100 ng/ml). The experiments were performed in healthy volunteers, CAD patients treated with ASA, and CAD patients treated with ASA and clopidogrel combination (n=10, for each group).
(§2) An Informed Consent was obtained from all volunteers. Drug users were excluded from data analysis. The study was approved by Quorum Institutional Review Board. All subjects underwent blood sampling after at least 30 minutes of rest and two or more hours of fasting. Blood (28 ml) was drawn between 8 and 10 a.m. in order to avoid any diurnal influence and sampled from an antecubital vein using a 21-gauge butterfly needle containing 3.2% sodium citrate (1:9 volume) after having discarded the first 1.5 ml of free running blood. Four Vacutainer tubes (7.0 ml) were collected for a total of 28 ml of whole blood-citrate mixture from each study participant. Chronologically, blood samples were delivered to the core laboratory facility within 45 minutes after drawing. Then all tubes of blood-citrate mixture were pooled. One portion of pooled blood (5 ml) was kept as an internal control and pretreated with the vehicle. The remaining blood (23 ml) was used for the in vitro exposure to E5555 at concentrations of 20 ng/ml, 50 ng/ml, and 100 ng/ml. […] The platelet aggregation studies, Rapid Analyzers measures, and flow cytometry preparations were initiated within no more than 110 minutes following the blood draw, incubation with the drug, and preparation of the samples.
(§3) Formation of platelet-leukocyte aggregates was assessed by dual labeling with pan-platelet marker (CD151), and then with CD14, the macrophage receptor for endotoxin lipopolysaccharides (PharMingen, and Coulter, San Diego, Calif., USA). The tubes were then covered with aluminum foil and incubated at 37° C. for 40 minutes with gentle rotation. After incubation, samples were immediately analyzed on a Becton Dickinson FACScan flow cytometer. The instrument was set up to measure forward light scatter, and FITC fluorescence. All parameters were collected using four-decade logarithmic amplification. The data was retrieved in list mode files and then analyzed. P selectin was expressed as percent positive cells. Other antigens were expressed as log mean fluorescence intensity.

WEDE15 = assay: TRAP-stimulated whole blood flow cytometry, WEDE15; settings: Mean ± SD
Experimental: as §1, §2, §3
(§4) For flow cytometry (TRAP-stimulated) all of the above flow cytometry experiments were identically repeated utilizing prestimulation with 10 μmol/L TRAP for 5 minutes at 37° C. To determine statistics, a Paired Sign Test was used to define significance of differences between vehicle and E5555-treated groups. The Mann-Whitney U test was used to analyze nonparametric data. Normally distributed data were expressed as mean±standard error (m±SE), and skewed data as median (range). All P-values were two sided. All analysis was performed using the SPSS v9.0 program (SPSS Inc., Chicago, Ill.).

LAMP-1 (CD107a) = assay: TRAP-stimulated whole blood flow cytometry, LAMP-1; settings: Mean ± SD
Experimental: as §1, §2, §3, §4

GP37 (CD165) = assay: TRAP-stimulated whole blood flow cytometry, GP37; settings: Mean ± SD
Experimental: as §1, §2, §3, §4

PMA (CD14 + CD151) = assay: Unstimulated whole blood flow cytometry, platelet-monocyte aggregates; settings: for PMA (CD14 + CD151), Mean Fluorescence Intensity: unstimulated, Mean ± SD
Experimental: as §1, §2, §3

[1] = tested on: Thrombospondin-Receptor (CD36); assay: TRAP-stimulated whole blood flow cytometry, thrombospondin receptor; settings: Mean ± SD
Experimental: as §1, §2, §3, §4

VTNR (CD51/61) = assay: Unstimulated whole blood flow cytometry, vitronectin receptor; settings: for VTNR (CD51/61), Mean Fluorescence Intensity: unstimulated, Mean ± SD
Experimental: as §1, §2, §3

[2] = overall summary, stimulation not stated
[3] = E5555 20 ng/ml, Patients (ASA + C)
[4] = E5555 50 ng/ml, Patients (ASA + C)
[5] = E5555 100 ng/ml, Patients (ASA + C)
[6] = E5555 100 ng/ml, Patients (ASA)

Br.CCOc1cc2c(c(F)c1OCC)C(=N)N(CC(=O)c1cc(N3CCOCC3)c(OC)c(C(C)(C)C)c1)C2 [E5555, 1-(3-tert-butyl-4-methoxy-5-morpholinophenyl)-2-(5,6-diethoxy-7-fluoro-1-imino-1,3-dihydro-2H-isoindol-2-yl)ethanone hydrobromide]
GPIb expression, effect in words (GPIb (CD42b); [2]): significant reduction | GPIb (CD42b), Mean Fluorescence Intensity (GPIb (CD42b); [3]): 103 ± 7 MFI | GPIb (CD42b), Mean Fluorescence Intensity (GPIb (CD42b); E5555 20 ng/ml, Patients (ASA)): 106 ± 5 MFI | GPIb (CD42b), Mean Fluorescence Intensity (GPIb (CD42b); E5555 20 ng/ml, Volunteers): 162 ± 19 MFI | GPIb (CD42b), Mean Fluorescence Intensity (GPIb (CD42b); [4]): 94 ± 12 MFI | GPIb (CD42b), Mean Fluorescence Intensity (GPIb (CD42b); E5555 50 ng/ml, Patients (ASA)): 109 ± 7 MFI | GPIb (CD42b), Mean Fluorescence Intensity (GPIb (CD42b); E5555 50 ng/ml, Volunteers): 145 ± 20 MFI | GPIb (CD42b), Mean Fluorescence Intensity (GPIb (CD42b); [5]): 100 ± 15 MFI | GPIb (CD42b), Mean Fluorescence Intensity (GPIb (CD42b); [6]): 111 ± 10 MFI | GPIb (CD42b), Mean Fluorescence Intensity (GPIb (CD42b); E5555 100 ng/ml, Volunteers): 157 ± 16 MFI | WEDE15, Mean Fluorescence Intensity (WEDE15; [3]): 33 ± 5 MFI | WEDE15, Mean Fluorescence Intensity (WEDE15; E5555 20 ng/ml, Patients (ASA)): 38 ± 6 MFI | WEDE15, Mean Fluorescence Intensity (WEDE15; E5555 20 ng/ml, Volunteers): 40 ± 7 MFI | WEDE15, Mean Fluorescence Intensity (WEDE15; [4]): 34 ± 6 MFI | WEDE15, Mean Fluorescence Intensity (WEDE15; E5555 50 ng/ml, Patients (ASA)): 39 ± 6 MFI | WEDE15, Mean Fluorescence Intensity (WEDE15; E5555 50 ng/ml, Volunteers): 40 ± 5 MFI | WEDE15, Mean Fluorescence Intensity (WEDE15; [5]): 33 ± 6 MFI | WEDE15, Mean Fluorescence Intensity (WEDE15; [6]): 40 ± 8 MFI | WEDE15, Mean Fluorescence Intensity (WEDE15; E5555 100 ng/ml, Volunteers): 40 ± 8 MFI | LAMP-1 (CD107a), Mean Fluorescence Intensity (LAMP-1 (CD107a); [3]): 4.0 ± 0.8 MFI | LAMP-1 (CD107a), Mean Fluorescence Intensity (LAMP-1 (CD107a); E5555 20 ng/ml, Patients (ASA)): 4.1 ± 0.7 MFI | LAMP-1 (CD107a), Mean Fluorescence Intensity (LAMP-1 (CD107a); E5555 20 ng/ml, Volunteers): 5.9 ± 0.8 MFI | LAMP-1 (CD107a), Mean Fluorescence Intensity (LAMP-1 (CD107a); [4]): 3.2 ± 1.0 MFI | LAMP-1 (CD107a), Mean Fluorescence Intensity (LAMP-1 (CD107a); E5555 50 ng/ml, Patients (ASA)): 4.0 ± 0.5 MFI | LAMP-1 (CD107a), Mean Fluorescence Intensity (LAMP-1 (CD107a); E5555 50 ng/ml, Volunteers): 4.9 ± 0.4 MFI | LAMP-1 (CD107a), Mean Fluorescence Intensity (LAMP-1 (CD107a); [5]): 3.0 ± 1.1 MFI | LAMP-1 (CD107a), Mean Fluorescence Intensity (LAMP-1 (CD107a); [6]): 3.1 ± 0.7 MFI | LAMP-1 (CD107a), Mean Fluorescence Intensity (LAMP-1 (CD107a); E5555 100 ng/ml, Volunteers): 4.7 ± 0.8 MFI | GP37 (CD165), Mean Fluorescence Intensity (GP37 (CD165); [3]): 27 ± 4 MFI | GP37 (CD165), Mean Fluorescence Intensity (GP37 (CD165); E5555 20 ng/ml, Patients (ASA)): 27 ± 5 MFI | GP37 (CD165), Mean Fluorescence Intensity (GP37 (CD165); E5555 20 ng/ml, Volunteers): 32 ± 6 MFI | GP37 (CD165), Mean Fluorescence Intensity (GP37 (CD165); [4]): 18 ± 4 MFI | GP37 (CD165), Mean Fluorescence Intensity (GP37 (CD165); E5555 50 ng/ml, Patients (ASA)): 20 ± 7 MFI | GP37 (CD165), Mean Fluorescence Intensity (GP37 (CD165); E5555 50 ng/ml, Volunteers): 28 ± 5 MFI | GP37 (CD165), Mean Fluorescence Intensity (GP37 (CD165); [5]): 21 ± 9 MFI | GP37 (CD165), Mean Fluorescence Intensity (GP37 (CD165); [6]): 22 ± 6 MFI | GP37 (CD165), Mean Fluorescence Intensity (GP37 (CD165); E5555 100 ng/ml, Volunteers): 29 ± 4 MFI | Formation of platelet-monocyte aggregates, effect in words (PMA (CD14 + CD151); [2]): significantly reduced | PMA (CD14 + CD151), Mean Fluorescence Intensity (PMA (CD14 + CD151); [3]): 104 ± 16 MFI | PMA (CD14 + CD151), Mean Fluorescence Intensity (PMA (CD14 + CD151); E5555 20 ng/ml, Patients (ASA)): 114 ± 18 MFI | PMA (CD14 + CD151), Mean Fluorescence Intensity (PMA (CD14 + CD151); E5555 20 ng/ml, Volunteers): 130 ± 16 MFI | PMA (CD14 + CD151), Mean Fluorescence Intensity (PMA (CD14 + CD151); [4]): 100 ± 27 MFI | PMA (CD14 + CD151), Mean Fluorescence Intensity (PMA (CD14 + CD151); E5555 50 ng/ml, Patients (ASA)): 114 ± 19 MFI | PMA (CD14 + CD151), Mean Fluorescence Intensity (PMA (CD14 + CD151); E5555 50 ng/ml, Volunteers): 128 ± 18 MFI | PMA (CD14 + CD151), Mean Fluorescence Intensity (PMA (CD14 + CD151); [5]): 105 ± 21 MFI | PMA (CD14 + CD151), Mean Fluorescence Intensity (PMA (CD14 + CD151); [6]): 107 ± 20 MFI | PMA (CD14 + CD151), Mean Fluorescence Intensity (PMA (CD14 + CD151); E5555 100 ng/ml, Volunteers): 124 ± 23 MFI | Thrombospondin-Receptor (CD36), Mean Fluorescence Intensity [1, 3]: 6 ± 1 MFI | Thrombospondin-Receptor (CD36), Mean Fluorescence Intensity ([1]; E5555 20 ng/ml, Patients (ASA)): 6 ± 2 MFI | Thrombospondin-Receptor (CD36), Mean Fluorescence Intensity ([1]; E5555 20 ng/ml, Volunteers): 9 ± 1 MFI | Thrombospondin-Receptor (CD36), Mean Fluorescence Intensity [1, 4]: 5 ± 1 MFI | Thrombospondin-Receptor (CD36), Mean Fluorescence Intensity ([1]; E5555 50 ng/ml, Patients (ASA)): 7 ± 1 MFI | Thrombospondin-Receptor (CD36), Mean Fluorescence Intensity ([1]; E5555 50 ng/ml, Volunteers): 9 ± 2 MFI | Thrombospondin-Receptor (CD36), Mean Fluorescence Intensity [1, 5]: 6 ± 2 MFI | Thrombospondin-Receptor (CD36), Mean Fluorescence Intensity [1, 6]: 7 ± 2 MFI | Thrombospondin-Receptor (CD36), Mean Fluorescence Intensity ([1]; E5555 100 ng/ml, Volunteers): 9 ± 1 MFI | vitronectin receptor expression, effect in words (VTNR (CD51/61); [2]): significant reduction | VTNR (CD51/61), Mean Fluorescence Intensity (VTNR (CD51/61); [3]): 7.9 ± 1.8 MFI | VTNR (CD51/61), Mean Fluorescence Intensity (VTNR (CD51/61); E5555 20 ng/ml, Patients (ASA)): 8.4 ± 1.5 MFI | VTNR (CD51/61), Mean Fluorescence Intensity (VTNR (CD51/61); E5555 20 ng/ml, Volunteers): 8.7 ± 0.6 MFI | VTNR (CD51/61), Mean Fluorescence Intensity (VTNR (CD51/61); [4]): 8.2 ± 1.6 MFI | VTNR (CD51/61), Mean Fluorescence Intensity (VTNR (CD51/61); E5555 50 ng/ml, Patients (ASA)): 8.6 ± 2.1 MFI | VTNR (CD51/61), Mean Fluorescence Intensity (VTNR (CD51/61); E5555 50 ng/ml, Volunteers): 9.1 ± 1.0 MFI | VTNR (CD51/61), Mean Fluorescence Intensity (VTNR (CD51/61); [5]): 9.0 ± 2.4 MFI | VTNR (CD51/61), Mean Fluorescence Intensity (VTNR (CD51/61); [6]): 8.3 ± 14 MFI | VTNR (CD51/61), Mean Fluorescence Intensity (VTNR (CD51/61); E5555 100 ng/ml, Volunteers): 9.6 ± 1.1 MFI
